Series [1] is described as follows: Non-invasive optical pharmacokinetic studies (fluorescence at the ear). The note with it: rat, 1 mL of 2 mM solution into tail vein, fluorescence monitored at the ear; mean ± SEM. Format: in vivo, Sprague-Dawley rats. As for the experimental part: 3.4. Non-Invasive optical pharmacokinetic studies. Male Sprague-Dawley rats (330-380 g) are anesthetized by Inactin (I.P.) or 2% Isoflurane gas anesthesia delivered by a small rodent gas anesthesia machine (RC2, Vetequip, Pleasanton, Calif.). The animals are placed on a heated board where temperature is maintained between 36-38° C. One ear lobe is glued flat to a glass slide positioned approximately 2 mm beneath a fiber optic bundle for recording fluorescence from a test compound passing through the ear. After a 100 second baseline recording, 1 mL of a 2 mM solution is injected into the tail-vein of the rat and the fluorescence signal corresponding to plasma and tissue distribution and subsequent renal clearance of the compound is monitored at the ear. The pharmacokinetic parameters of the compounds are analyzed using WinNonLin pharmacokinetic modeling software (Pharsight, Mountain View, Calif.) and Microsoft (Redmond, Wash.) Excel. This method is used to detect renally excretable compounds of the invention and FIG. 6 provides a plot illustrating non-invasive in vivo fluorescence as a function of time following delivery of a renally excretable compound.
3.5. Optical monitoring apparatus and protocol. A nominal 473 nm solid state laser source (100) is employed (Power Technology model LDCU12/7314). […]

A short description of series [2]: Invasive pharmacokinetic (PK) studies (plasma concentration by HPLC). Format: in vivo, Sprague-Dawley rats. The note with it: rat, 1 mL of 2 mM solution i.v., plasma samples 0-120 min, mean ± SEM; for clearance: male, Sprague-Dawley, iv. The protocol: 3.6. Invasive pharmacokinetic (PK) studies. Male Sprague-Dawley rats (330-380 g) are anesthetized by Inactin (I.P.). Rats are surgically instrumented with a trachea tube (PE-190) to facilitate breathing and femoral artery and vein catheters (PE-50 filled with 20 units/mL heparinized saline) for blood sampling and drug administration respectively. After administration of 1 mL of a 2 mM solution of agent, approximately 200 μL of blood is sampled and placed into a heparinized tube (Microtainer Brand Tube w/Lithium Heparin, BD 365971) at 0, 1, 6, 12, 18, 30, 45, 60, 90, 120 min. The concentration of compound in each centrifuged plasma sample is determined via HPLC analysis using a set of external calibration standards and fluorescence detection. The resulting pharmacokinetic parameters of the compound are analyzed using WinNonLin pharmacokinetic modeling software (Pharsight, Mountain View, Calif.). This method is used to detect renally excretable compounds of the invention and FIG. 8 provides a plot illustrating invasive PK (plasma concentration) as a function of time following delivery of a renally excretable compound.

A short description of series [3]: Urine elimination studies. The format is in vivo, Sprague-Dawley rats. The settings on record: rat, 1 mL of 2 mM in PBS by tail vein injection, 6 h post injection; mean ± SEM. As for the experimental part:
3.3. Urine elimination studies. Rat urine elimination studies are conducted in either conscious or anesthetized Sprague-Dawley rats. The test compound (1 mL, 2 mM in PBS) is administered by tail vein injection into conscious, restrained rats, with subsequent collection of urine at the time points of 2, 4 and 6 h post injection. The metabolic cages are washed with water to maximize the recovery of urine discharged at each time point. Alternatively, rats are anesthetized with 100 mg/kg Inactin intraperitoneally, a trachea tube is inserted to maintain adequate respiration, and 1 mL of test compound is injected into the lateral tail vein. Rats are placed on 37° C. heating pad during the entire experiment. At 6 h post injection, the abdomen is opened, and the urine is removed from the bladder using a 21 gauge needle and a 3 cc syringe. Quantitation of each compound in urine is performed via HPLC analysis using a set of external calibration standards and fluorescence detection. The percent recovery of compound in urine at each time point is calculated based on the balance of mass.

The nature of series [4]: Photophysical properties (excitation and emission maxima in PBS). Format: physicochemical. The settings on record: 10 μM solution in PBS. As for the experimental part:
3.2. Photophysical properties and protein binding. In general, renally excretable compounds are dissolved in PBS buffer to form a 2 mM stock solution. The UV absorbance properties are determined on a 100 μM solution in PBS using a UV-3101PC UV-Vis-NIR Scanning spectrophotometer system from Shimadzu. The fluorescence properties (λex, λem, and CPS at λem) are determined on a 10 μM solution in PBS using a Fluorolog-3 spectrofluorometer system from Jobin Yvon Horiba. The percent plasma protein binding are determined on a 20 μM compound solution in rat plasma incubated at 37° C. for 1 h. The separation of free from bound is made using an Amicon Centrifree YM-30 device (Regenerated Cellulose 30,000 MWCO) and a Z400K Refrigerated Universal Centrifuge from Hermle. The concentration of protein-free is determined via HPLC analysis using a set of external calibration standards and fluorescence detection.

Marks after values point to notes of the source that are not given here.

What is called clearance is the rate of elimination divided by the concentration. Read a high clearance as efficient removal. `CCCNc1nc(C(=O)NCCOCCOCCOCCOCCOCCOCCOCCOCCOCCOCCOCCOCCOCCOCCOCCOCCOCCOCCOCCOCCOCCOCCOCCOC)c(NCCC)nc1C(=O)NCCOCCOCCOCCOCCOCCOCCOCCOCCOCCOCCOCCOCCOCCOCCOCCOCCOCCOCCOCCOCCOCCOCCOCCOC` [Compound 4, 3,6-Bis(propylamino)-N^2,N^5-di(2,5,8,11,14,17,20,23,26,29,32,35,38,41,44,47,50,53,56,59,62,65,68,71-tetracosaoxatriheptacontan-73-yl)pyrazine-2,5-dicarboxamide]: in series [1], the “Tissue clearance (Optical) T1/2β” value is 20.5 ± 2.5 (3) min. In addition, in series [2], the clearance is 4.3 ± 1.1 mL/min and the “Plasma PK Clearance T1/2β” value is listed as 15.2 ± 6.7 (2) min. Besides, the “Percent in Urine (6 hrs)” value in series [3] is recorded as 85 ± 2 (3) Percent. Further, in series [4], the “Photophysical Properties Emission λmax” value was 611 nm and the “Photophysical Properties Excitation λmax” value is 501 nm.

Regarding `CCCNc1nc(C(=O)NCCNC(=O)CCOCCOCCOCCOCCOCCOCCOCCOCCOCCOCCOCCOC)c(NCCC)nc1C(=O)NCCNC(=O)CCOCCOCCOCCOCCOCCOCCOCCOCCOCCOCCOCCOC` [Compound 1, N^2,N^5-Bis(38-oxo-2,5,8,11,14,17,20,23,26,29,32,35-dodecaoxa-39-azahentetracontan-41-yl)-3,6-bis(propylamino)pyrazine-2,5-dicarboxamide], in series [2], the clearance came to 3 ± 0.2 mL/min and the “Plasma PK Clearance T1/2β” value was 21.7 ± 1.3 (3)^b min. Moreover, in series [4], the “Photophysical Properties Emission λmax” value is on record as 613 nm and the “Photophysical Properties Excitation λmax” value came out at 498 nm.

The record behind these values is US8697033B2, “Modified pyrazine derivatives and uses thereof” (Medibeacon, LLC, priority 2008, dated 2014).
